Reference: paper PMC6727846 (Journal of medicinal chemistry, 2019)
Where two headings read alike, the source gives them in different places.

What was measured:
Pf PM-V = Pf PM-V (Plasmodium falciparum, UniProt Q8I6Z5); format: cell-based; details: knockdown assay; data not shown
[1] = Mouse liver microsome metabolic stability; details: in words
PM-X = PM-X (Plasmodium falciparum, UniProt Q8IAS0); format: cell-based; details: western blot, substrate processing; data not shown
PM-IX = biological target: T1, PM-IX (Plasmodium falciparum, UniProt Q8ILG2); format: cell-based; details: western blot, substrate processing; data not shown
T1 sequence (Q8ILG2 1-627): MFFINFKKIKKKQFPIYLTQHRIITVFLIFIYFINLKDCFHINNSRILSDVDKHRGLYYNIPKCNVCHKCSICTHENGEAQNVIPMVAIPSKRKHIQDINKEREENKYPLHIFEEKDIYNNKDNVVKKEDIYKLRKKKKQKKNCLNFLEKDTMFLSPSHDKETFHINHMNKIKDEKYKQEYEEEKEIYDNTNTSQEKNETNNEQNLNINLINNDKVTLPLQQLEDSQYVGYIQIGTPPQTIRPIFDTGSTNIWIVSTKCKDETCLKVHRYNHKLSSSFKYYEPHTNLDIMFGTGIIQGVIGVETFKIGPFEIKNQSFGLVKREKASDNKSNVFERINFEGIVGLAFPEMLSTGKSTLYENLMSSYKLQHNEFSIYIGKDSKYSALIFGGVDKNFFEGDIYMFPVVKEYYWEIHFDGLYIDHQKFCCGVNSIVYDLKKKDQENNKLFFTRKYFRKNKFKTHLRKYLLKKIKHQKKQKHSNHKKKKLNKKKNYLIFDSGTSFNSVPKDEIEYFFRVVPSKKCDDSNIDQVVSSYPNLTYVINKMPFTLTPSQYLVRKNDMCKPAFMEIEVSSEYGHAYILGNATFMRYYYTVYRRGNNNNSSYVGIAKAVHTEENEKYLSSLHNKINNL

Cytotoxicity selectivity = format: cell-based
[2] = system: Plasmodium falciparum 3D7 (CQ-sensitive); assay: In vitro antimalarial SYBR Green I fluorescence assay; format: cell-based; details: for effect of substitution on Pf 3D7 potency, in words: SAR statement in text
Pf plasmepsin II (PM-II) = Pf plasmepsin II (PM-II) (Plasmodium falciparum, UniProt Q8I6V3); assay: biochemical
Chain of Pf plasmepsin II (PM-II) (Q8I6V3 125-453): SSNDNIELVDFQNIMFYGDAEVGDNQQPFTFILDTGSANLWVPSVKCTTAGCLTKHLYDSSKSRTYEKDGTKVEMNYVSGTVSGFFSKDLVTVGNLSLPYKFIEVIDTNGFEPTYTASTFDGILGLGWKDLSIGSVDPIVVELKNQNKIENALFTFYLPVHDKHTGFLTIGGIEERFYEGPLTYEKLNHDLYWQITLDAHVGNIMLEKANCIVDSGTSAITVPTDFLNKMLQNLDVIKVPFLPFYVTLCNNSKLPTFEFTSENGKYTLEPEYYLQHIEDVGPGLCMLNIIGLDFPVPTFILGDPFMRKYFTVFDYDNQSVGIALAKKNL

[3] = system: Plasmodium falciparum Dd2 (multi-drug resistant); assay: In vitro antimalarial SYBR Green I fluorescence assay; format: cell-based
[4] = Plasmodium falciparum, 3D7, 72 h, read-out: Pf 3D7 IC50
[5] = Plasmodium falciparum, 3D7, read-out: Pf 3D7 IC50 (side-by-side with CQ)

Chain of PM-X (Q8IAS0 222-573): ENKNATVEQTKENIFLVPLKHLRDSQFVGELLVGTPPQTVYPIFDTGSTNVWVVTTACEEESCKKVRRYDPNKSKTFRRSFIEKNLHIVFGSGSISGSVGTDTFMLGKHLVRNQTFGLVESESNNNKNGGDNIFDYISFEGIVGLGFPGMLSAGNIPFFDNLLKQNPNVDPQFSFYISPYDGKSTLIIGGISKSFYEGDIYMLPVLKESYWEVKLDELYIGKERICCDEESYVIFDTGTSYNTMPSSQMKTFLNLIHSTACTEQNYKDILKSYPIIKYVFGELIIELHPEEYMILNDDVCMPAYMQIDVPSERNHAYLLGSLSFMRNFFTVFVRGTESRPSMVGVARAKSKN
Chain of Pf PM-V (Q8I6Z5 whole entry): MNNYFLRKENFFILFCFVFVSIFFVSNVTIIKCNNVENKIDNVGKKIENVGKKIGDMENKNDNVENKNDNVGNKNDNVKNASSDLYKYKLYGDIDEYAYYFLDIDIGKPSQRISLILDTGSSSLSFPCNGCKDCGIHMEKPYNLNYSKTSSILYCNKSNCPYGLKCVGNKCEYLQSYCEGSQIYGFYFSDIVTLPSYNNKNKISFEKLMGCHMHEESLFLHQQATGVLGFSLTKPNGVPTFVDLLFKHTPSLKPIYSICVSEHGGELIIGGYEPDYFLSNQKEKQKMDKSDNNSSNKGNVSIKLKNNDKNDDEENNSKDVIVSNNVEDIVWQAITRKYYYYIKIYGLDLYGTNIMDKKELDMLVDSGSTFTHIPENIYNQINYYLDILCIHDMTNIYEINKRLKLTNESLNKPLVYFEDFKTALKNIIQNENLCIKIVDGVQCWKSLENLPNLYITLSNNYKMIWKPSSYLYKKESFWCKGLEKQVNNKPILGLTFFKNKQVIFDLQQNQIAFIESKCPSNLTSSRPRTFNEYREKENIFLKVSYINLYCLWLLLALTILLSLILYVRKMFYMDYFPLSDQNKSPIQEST

SMILES: COc1ccc(CNC(=O)[C@@H]2CNC[C@H]2c2ccc(C(F)(F)F)cc2)cc1 (racemic) [compound 6]
- inhibition of Pf PM-V (Pf PM-V): inactive
- metabolic stability profile in mouse liver microsomes [1]: improved
- inhibition of PM-X (PM-X): inactive
- inhibition of PM-IX (PM-IX): inactive
- selectivity ratio (Cytotoxicity selectivity): 100
- increase in potency relative to H (13) ([2]; Pf 3D7, amide benzyl ring SAR): 10 fold
- IC50 [2, 4]: 385 nM

SMILES: CN(C)c1ccc(CNC(=O)[C@H]2CNC[C@@H]2c2ccc(C(F)(F)F)nc2)cc1 (racemic) [compound 34]
- IC50 [2, 4]: 230 nM
- effect of substitution on Pf 3D7 potency, in words [2]: without loss in potency
- IC50 (Pf plasmepsin II (PM-II)): > 10000 nM

SMILES: C[C@H](NC(=O)[C@H]1CNC[C@@H]1c1ccc(C(F)(F)F)cc1)c1ccc(N(C)C)cc1 [54b, (+)-(3R,4S)-N-[(1S)-1-[4-(dimethylamino)phenyl]ethyl]-4-[4-(trifluoromethyl)phenyl]pyrrolidine-3-carboxamide]
- EC50 ([3]; DD2, read-out: EC50 against drug resistant Dd2 strain): 21 nM
- IC50 [2, 4]: 51 nM
- EC50 ([2]; Plasmodium falciparum, 3D7, read-out: EC50 against drug sensitive Plasmodium falciparum 3D7): 46 nM
- IC50 [2, 5]: 46 ± 6 nM

SMILES: C[C@@H]1CC[C@H]2[C@@H](C)C(=O)O[C@@H]3O[C@@]4(C)CC[C@@H]1[C@]32OO4 [artemesinin, reference compound]
- IC50 [2, 4]: 33 ± 0.6 nM

SMILES: CCN(CC)CCCC(C)Nc1ccnc2cc(Cl)ccc12 (stereo not drawn) [chloroquine, reference compound]
- IC50 ([3]; DD2, read-out: Pf Dd2 IC50 (side-by-side with CQ)): 196 ± 14 nM
- IC50 [2, 4]: 54 ± 0.4 nM
- IC50 [2, 5]: 38 ± 2 nM

SMILES: Cc1ccc(CNC(=O)[C@@H]2CNC[C@H]2c2ccc(C(F)(F)F)cc2)cc1 [compound 12]
- IC50 (Pf plasmepsin II (PM-II)): > 10000 nM

SMILES: CN(C)c1ccc(CNC(=O)[C@H]2CNC[C@@H]2c2ccc(C(F)(F)F)cc2)cc1 [compound 14]
- IC50 (Pf plasmepsin II (PM-II)): > 10000 nM

SMILES: CCN(CC)c1ccc(CNC(=O)[C@@H]2CNC[C@H]2c2ccc(C(F)(F)F)cc2)cc1 [compound 16]
- IC50 (Pf plasmepsin II (PM-II)): > 10000 nM

SMILES: CN(C)c1ccc(CNC(=O)[C@@H]2CNC[C@H]2c2ccc(C(F)(F)F)c(F)c2)cc1 [compound 24]
- IC50 (Pf plasmepsin II (PM-II)): > 10000 nM

SMILES: CN(C)c1ccc(CNC(=O)[C@@H]2CNC[C@H]2c2ccc(C(F)(F)F)c(Cl)c2)cc1 [compound 26]
- IC50 (Pf plasmepsin II (PM-II)): > 10000 nM

SMILES: CN(C)c1ccc(CNC(=O)[C@@H]2CNC[C@H]2c2ccc(Oc3ccccc3)cc2)cc1 [compound 30]
- effect of substitution on Pf 3D7 potency, in words [2]: tolerated
- IC50 (Pf plasmepsin II (PM-II)): > 10000 nM

SMILES: CN(C)c1ccc(CNC(=O)[C@H]2CNC[C@@H]2c2cnc(C(F)(F)F)nc2)cc1 [compound 35]
- effect of substitution on Pf 3D7 potency, in words [2]: modest erosion of potency

SMILES: C[C@@H](NC(=O)[C@H]1CNC[C@@H]1c1ccc(C(F)(F)F)nc1)c1ccc(N(C)C)cc1 [compound 55, (+)-(3R,4S)-N-[(1R)-1-[4-(dimethylamino)phenyl]ethyl]-4-[6-(trifluoromethyl)pyridin-3-yl]pyrrolidine-3-carboxamide]
- reduction / loss in potency relative to parent analog ([2]; Pf 3D7, SAR comparison stated in text): > 30 fold
